What follows are compounds tested on HEK293T cells carrying the ATF4 luciferase reporter (assay: ATF4-Luc assay (in vitro model of vanishing white matter disease)). Settings: Homo sapiens, HEK-293T, 1 μg/mL tunicamycin, 7 hours.
Type: cell-based
Summary of the method: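 Stable HEK293T line expressing firefly luciferase behind the human full-length ATF4 5′-UTR, grown in DMEM/10% FBS. Cells were co-treated with 1 μg/mL tunicamycin and 200 nM compound for 7 h. Luciferase luminescence was read as the output, and EC50 values were derived from it.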

`O=C(COc1ccc(Cl)c(F)c1)NC12CC(C(=O)N(CCO)Cc3ccc(Cl)c(F)c3)(C1)C2` [Compound 343, 3-[2-(4-chloro-3-fluorophenoxy)acetamido]-N-[(4-chloro-3-fluorophenyl)methyl]-N-(2-hydroxyethyl)bicyclo[1.1.1]pentane-1-carboxamide] and `O=C(COc1ccc(Cl)c(F)c1)NC12CCC(C(=O)N(CCO)Cc3ccc(Cl)c(F)c3)(CC1)CC2` [Compound 344, 4-[2-(4-chloro-3-fluorophenoxy)acetamido]-N-[(4-chloro-3-fluorophenyl)methyl]-N-(2-hydroxyethyl)bicyclo[2.2.2]octane-1-carboxamide] fall in the same range of EC50: 1000 to 2000 nM for the first, 1000 to 2000 nM for the second.

Compared with `O=C(COc1ccc(Cl)c(F)c1)NC12CC(C(=O)NCc3ccc(C(F)F)cn3)(C1)C2` [Compound 345, 3-[2-(4-chloro-3-fluorophenoxy)acetamido]-N-{[5-(difluoromethyl)pyridin-2-yl]methyl}bicyclo[1.1.1]pentane-1-carboxamide], `O=C(COc1ccc(Cl)c(F)c1)NC12CCC(C(=O)NCc3ccc(C(F)F)cn3)(CC1)CC2` [Compound 346, 4-[2-(4-chloro-3-fluorophenoxy)acetamido]-N-{[5-(difluoromethyl)pyridin-2-yl]methyl}bicyclo[2.2.2]octane-1-carboxamide] is lower in EC50: 250 to 500 nM for the first, under 250 nM for the second. The second is the more potent here.

Compound `O=C(COc1ccc(Cl)c(F)c1)NC12CCC(C(=O)NCC(=O)c3ccc(Cl)c(F)c3)(CC1)[C@H](O)C2` [Compound 347, (2R)-4-[2-(4-chloro-3-fluorophenoxy)acetamido]-N-[2-(4-chloro-3-fluorophenyl)-2-oxoethyl]-2-hydroxybicyclo[2.2.2]octane-1-carboxamide] has an EC50 of under 250 nM.

From patent US20240173307A1, “MODULATORS OF THE INTEGRATED STRESS PATHWAY” (Calico Life Sciences LLC, priority 2017, published 2024)
